From ChEMBL document CHEMBL5532762, “Potential of covalently linked tamoxifen hybrids for cancer treatment: recent update” (RSC Med Chem, 2024)
Each block holds one molecule with its values, some of them ahead of it.

What was measured:
[1] = test system: MCF7; test: Antiproliferative activity against human MCF7 cells assessed as reduction in cell viability measured after 72 hrs by MTT assay; assay type: functional, cell-based; conditions: MCF7, 72 h
[2] = test system: MDA-MB-231; test: Growth inhibition of human MDA-MB-231 cells measured after 48 hrs by SRB assay; assay type: functional
[3] = test system: SiHa; test: Growth inhibition of human SiHa cells measured after 48 hrs by SRB assay; assay type: functional
[4] = Aqueous solubility of the compound; assay type: physicochemical; conditions: water (aqueous)
[5] = test system: MDA-MB-231; test: Antiproliferative activity against human MDA-MB-231 cells assessed as reduction in cell growth incubated for 24 hrs by MTT assay; conditions: MDA-MB-231, 24 h
[6] = test system: MCF7; test: Antiproliferative activity against human MCF7 cells assessed as reduction in cell growth incubated for 24 hrs by MTT assay; conditions: MCF7, 24 h
[7] = test system: MCF7; test: Antiproliferative activity against human MCF7 cells assessed as reduction in cell growth measured after 72 hrs by alamar blue analysis; conditions: MCF7, 72 h
[8] = target: Estrogen receptor beta (Homo sapiens, UniProt Q92731); test: Inhibition of ERbeta (unknown origin) by renilla luciferase assay
Sequence of Estrogen receptor beta (Q92731 whole entry): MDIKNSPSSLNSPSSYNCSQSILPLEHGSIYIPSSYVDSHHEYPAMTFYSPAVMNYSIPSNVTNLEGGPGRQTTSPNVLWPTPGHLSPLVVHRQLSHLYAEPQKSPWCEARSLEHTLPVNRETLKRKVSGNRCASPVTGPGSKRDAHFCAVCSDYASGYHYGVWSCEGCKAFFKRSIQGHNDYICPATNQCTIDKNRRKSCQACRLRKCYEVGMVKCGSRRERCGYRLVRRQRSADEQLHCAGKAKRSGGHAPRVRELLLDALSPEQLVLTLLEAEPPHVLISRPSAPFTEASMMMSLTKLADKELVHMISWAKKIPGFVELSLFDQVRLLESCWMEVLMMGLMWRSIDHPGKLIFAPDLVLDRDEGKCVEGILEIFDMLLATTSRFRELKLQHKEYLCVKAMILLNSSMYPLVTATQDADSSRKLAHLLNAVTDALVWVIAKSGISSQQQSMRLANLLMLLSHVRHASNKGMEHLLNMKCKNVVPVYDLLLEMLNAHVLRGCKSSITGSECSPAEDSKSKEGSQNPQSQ

[9] = test system: MCF7; test: Antiproliferative activity against human MCF7 cells assessed as cell growth inhibition incubated for 72 hrs by MTT assay; conditions: MCF7, 72 h

Compound: c1ccc(/C(Cn2cncn2)=C(/c2ccccc2)c2ccc(OCCN3CCN(c4ccc5c(c4)OCO5)CC3)cc2)cc1
GI50 [2]: 230 nM

Compound: c1ccc(/C(Cn2cncn2)=C(/c2ccccc2)c2ccc(OCCN3CCN(c4ncccn4)CC3)cc2)cc1
GI50 [3]: 120 nM

Compound: CC/C(=C(/c1ccc(OCCN(C)C)cc1)c1ccc(OC(=O)N(C)CCN(C)C(=O)OCc2cc(OC)c(OCC(=O)NCCN)cc2[N+](=O)[O-])cc1)c1ccccc1
solubility [4]: ≥ 20 µg/mL

Compound: CCC(=C(c1ccc(O)cc1)c1ccc(OCCN(C)C(=O)/C(=C/c2ccc(OC)c(O)c2)c2cc(OC)c(OC)c(OC)c2)cc1)c1ccc(O)cc1
IC50 [5]: 2480 nM | IC50 [6]: 5 nM

Compound: CC/C(=C(\c1ccc(O)cc1)c1ccc(OCCN(C)C(=O)CCC(=O)Oc2cc(/C=C\c3cc(OC)c(OC)c(OC)c3)ccc2OC)cc1)c1ccccc1
IC50 [7]: 5.7 nM

Compound: CCC(=C(c1ccc(O)cc1)c1ccc(OCCNCCCCCCNC(=O)CCCCCNC(=O)CSc2c(Cl)c(Cl)c(C(=O)O)c(C3=c4cc5c(c(S(=O)(=O)O)c4Oc4c3cc3c(c4S(=O)(=O)O)NC(C)(C)CC3C)=NC(C)(C)CC5C)c2Cl)cc1)c1ccccc1 (centres undefined)
IC50 [8]: 240000 nM

Compound: COc1ccc(/C=C\c2cc(OC)c(OC)c(OC)c2)cc1O [COMBRETASTATIN A4]
IC50 [6]: 8 nM

Results, then the molecule that gave them:

IC50 [1]: 80000 nM
Compound: CC/C(=C(\c1ccccc1)c1ccc(OCCN(C)CCCCCC(=O)NCCc2c[nH]c3ccc(OC)cc23)cc1)c1ccccc1

IC50 [1]: 4000 nM
Compound: CC/C(=C(\c1ccccc1)c1ccc(OCCN(C)CCCCC(=O)NCCc2c[nH]c3ccc(OC)cc23)cc1)c1ccccc1

solubility [4]: ≥ 20 µg/mL
Compound: COc1cc(COc2ccc(/C(=C(\C)c3ccccc3)c3ccc(OCCN(C)C)cc3)cc2)c([N+](=O)[O-])cc1OCC(=O)NCCN

IC50 [6]: 29 nM
Compound: CC/C(=C(\c1ccc(O)cc1)c1ccc(OCCNC)cc1)c1ccccc1 [ENDOXIFEN]

IC50 [9]: 12600 nM | GI50 [2]: 240 nM
Compound: CC/C(=C(\c1ccccc1)c1ccc(OCCN(C)C)cc1)c1ccccc1 [TAMOXIFEN]
